Results published in patent US20250114472A1, “CONJUGATE AND USE THEREOF” (BEIJING CHEMPION BIOTECHNOLOGY CO., LTD., priority 2022, published 2025).
Where a SMILES comes first, the peptide text is derived from it. [ ]: non-standard residue; d: D form. The star is where a group is joined. Dolaproine = CO[C@@H]([C@@H]1CCCN1)[C@@H](C)C(=O)O; Dil = CC[C@H](C)[C@H](NC)[C@@H](CC(=O)O)OC; X1 = C[C@@H](N*)[C@@H](O)c1ccccc1; NMeV = CN[C@H](C(=O)O)C(C)C

Test system: NCI-N87 cells
Test: Cytotoxicity assay (Cell Titer Glo cell viability)
Assay type: cell-based
Conditions: 144 hours, CTG
From the text: Cell viability assay was used to detect the cytotoxicity of an ADC antibody on NCI-N87 cells. This method can quantitatively analyze and specifically detect the cytotoxicity of an ADC antibody on NCI-N87 cells. Cells cultured without addition of ADC antibody were used as a blank control to determine the threshold of the cell viability detection. A signal below this threshold was considered as a specific signal generated after the ADC antibody killed cells. NCI-N87 cells (5×10^3 cells/well) were resuspended in a RPMI1640 medium containing 15% FBS and inoculated into a black 96-well plate with transparent bottom in a volume of 50 μL. The 96-well plate was placed in an incubator set at 37° C. and 5% CO2 overnight. After the overnight incubation, 50 μL of different concentrations of ADC antibodies or MMAE (starting from 400 nM, 4-fold serial dilution) were added to the 96-well plate (making the total volume to 100 μL/well), and the 96-well plate was placed in an incubator set at 37° C. and 5% CO2 for 144 hours. Cell Titer Glo (50 μL/well) was added to each well and the mixture was thoroughly mixed. The luciferase intensity was read using Envision. The cytotoxic effect was calculated using the following formula: cytotoxicity %=100* (RFUcell only−RFUsample)/RFUcell only. The IC50 value was calculated by four-parameter nonlinear regression analysis using GraphPad Prism 7 software.

SMILES: CC[C@H](C)[C@@H]([C@@H](CC(=O)N1CCC[C@H]1[C@H](OC)[C@@H](C)C(=O)N[C@H](C)[C@@H](O)c1ccccc1)OC)N(C)C(=O)[C@@H](NC(=O)[C@@H](NC)C(C)C)C(C)C [MMAE, monomethyl auristatin E] (H-[NMeV]V[Dil][Dolaproine]-X1)
- Max Inh % (from 400 nM): 90.41%
- IC50 (Homo sapiens): 0.12 nM
